Consider nine compounds from US20020091082A1, “Methods of modulating symptoms of hypertension” (priority 2000, published 2002).

The subject of one assay is VEGF mRNA. Put plainly: Stretch-induced VEGF mRNA expression in bovine retinal pericytes (Northern blot). In kind it is cell-based. As to conditions: BRPC; for inhibition of stretch-induced VEGF mRNA expression: 9%/60 cpm cyclic stretch 3 hours, genistein 20 uM, adenovirus 1×10^8 pfu/ml; for inhibition of stretch-induced VEGF mRNA expression / effect on stretch-induced VEGF mRNA expression: LY294002 50 uM, wortmannin 100 nM; for effect on basal VEGF mRNA expression: unstretched; for effect on stretch-induced VEGF mRNA expression: 9%/60 cpm cyclic stretch, PD98059 20 uM, GF109203X 5 uM. The method, then: To determine the mechanism by which stretch increased VEGF mRNA expression, inhibitors of MEK1 (PD98059, 20 uM), classical/novel PKC isoforms (GF109203X, 5 uM), tyrosine phosphorylation (genistein, 20 uM) and PI3 kinase (wortmannin, 100 nM and LY294002, 50 uM) were evaluated. In all experiments 9%/60 cpm cyclic stretch for 3 hours induced VEGF mRNA expression. Inhibition of ERK1/2 utilizing PD98059 had little effect on either basal or stretch-induce expression of VEGF. […] LY294002 and wortmannin inhibited stretched induced VEGF mRNA expression by 85±20% (p=0.039) and 96±25% (p=0.035), respectively.
Cell culture: Primary cultures of bovine retinal pericytes (BRPC) were isolated by homogenization and a series of filtration steps. BRPC were cultured in DMEM containing 5.5 mM glucose and 20% FBS. The cells were maintained in 5% CO2 at 37 °C and media were changed every three days. Cells were characterized for their homogeneity by immunoreactivity with monoclonal antibody 3G5. Cells were plated at a density of 2×10^4 cells/cm2 and passaged when confluent. The media were changed every three days and only cells from passages 2-5 were used for experiments.
(§1) Mechanical Stretch: For pericyte experiments, cells were plated on 6-well flexiblebottom culture plates coated with collagen (Flexcell Corp.,Mckeepsport, Pa.). After 2 days, media were changed to DMEM containing 1% calf serum and the cells incubated overnight. Cells were then subjected to uniform radial and circumferential strain in 5% CO2 at 37° C. using a computer-controlled, vacuum stretch apparatus (Flexcer Cell Strain Unit; Flexcel Corp.). A physiologic stretch frequency of 60 cpm and 3-20% prolongation of elastomer bottomed plates were used as previously described.
RNA Extraction: RNA was extracted using the guanidinium thiocynate method. RNA purity was determined by the ratio of optical density (OD) measured at 260 & 280 nm and RNA quantity was estimated using OD measured at 260 nm.
Northern Blot Analysis: Northern blot analysis was performed on 15 μg total RNA per lane after 1% agarose-2M formaldehyde gel electrophoresis and subsequent capillary transfer to Biodyne nylon membranes (Pall BioSupport, East Hills, N.Y.). Membranes underwent ultraviolet crosslinking using a UV Stratalinker 2400 (STRATAGENE, La Jolla, Calif.). Radioactive probes were generated using Amersham Megaprime labeling kits (Buckinghamshire, England) and 32PdCTP (NEN Life Science Products Inc., Boston, Mass.). Blots were pre-hybridized, hybridized and washed 4 times in 0.5×SSC, 5% SDS at 65 °C for 1 hour in a rotating hybridization oven (Robbins Scientific Corporation, Sunnyvale, Calif.). All signals were analyzed using a computing PhosphorImager with ImageQuant software analysis (Molecular Dynamics, Sunnyvale, Calif.). The signal for each sample was normalized by re-probing the same blot using 36B4 cDNA control probe.

For the next assay, the system named is Akt. Put plainly: Stretch-induced Akt phosphorylation in retinal pericytes. In kind it is cell-based, bovine. As to conditions: cyclic stretch. The method, then:
The mechanism of stretch-induced Akt phosphorylation was evaluated using two PI3 kinase inhibitors (LY294002 and wortmannin), the MEK1 inhibitor PD98059 and the tyrosine kinase inhibitor genistein.
as §1
ERK1/2 and Akt phosphorylation: Cells were washed with cold PBS and lysed in 1X Laemmli buffer containing protease inhibitors as described above. Cell lysates were heated to 95 °C for 2 min and equal volume of lysates were subjected to SDS-PAGE under reducing conditions. The blots were incubated with anti-phosphospecific ERK1(p44)/ERK2(p42) or anti-phosphospecific Akt antibody (New England Biolabs, Beverly, Ma.). Lane loading differences were normalized by reblotting with non-phosphorylation-specific (total) anti ERK1 antibody (Santa Cruz Biological) or anti-total Akt antibody(New England Biolabs).

The test system of another assay is ERK1/2. Put plainly: Stretch-induced ERK1/2 phosphorylation in retinal pericytes. The format is cell-based, bovine. As to the method: To determine what pathways were activated in retinal pericytes exposed to cardiac profile cyclic stretch, ERK phosphorylation, PI3 kinase activity and Akt phosphorylation were evaluated. Stretch induced a rapid increase in ERK 1/ 2 phosphorylation which was initially evident after 2 minutes, maximal at 5 min (ERK1=20-fold; ERK2=8.9-fold increase) and still maintained above baseline even after 60 min (ERK1=6.3-fold; ERK2=4.5-fold).
Further confirmation that stretch-induced ERK1/2 activation was not involved in mediating stretch-induced VEGF expression was obtained by assaying ERK1/2 phosphorylation after exposure to the inhibitors described herein. The inhibitor response for stretch-induced ERK1/2 phosphorylation was opposite that observed for stretch-induced VEGF expression. Stretch-induced ERK1/2 phosphorylation was reduced by inhibition of MEK1 (85+10.8%, 88+7.1%, p<0.05) or classical/novel PKC (83+23%, 84+7.1% p<0.05) but relatively unaffected by inhibition of PI3 kinase or tyrosine phosphorylation. Adenovirus infection with dominant negative ERK, wild type active ERK63 or b-galactosidase control had no effect on stretch-induced VEGF expression.
Mechanical Stretch: For pericyte experiments, cells were plated on 6-well flexiblebottom culture plates coated with collagen (Flexcell Corp.,Mckeepsport, Pa.). […]

The subject of another assay is retinal VEGF mRNA. Put plainly: Retinal VEGF mRNA in spontaneously hypertensive rats (multiplex RT-PCR). As to conditions: SHR rats; captopril 100 mg/kg/day or candesartan cilexetil 10 mg/kg/day in drinking water for one week. The format is in vivo, rat. As to the method:
(§2) 12 week-old male spontaneously hypertensive rats (SHR) and weight-matched Wistar-Kyoto (WKY) control animals were used. Systolic and diastolic blood pressures were measured from each animal by tail cuff. Animals were treated with or without 100 mg/kg/day captopril or 10 mg/kg/day candesartan cilexetil for one week. Drugs were administered in drinking water. Blood measurements were repeated after therapy and the retinas individually isolated.
(§3) RNA was isolated from individual retinas and RNA reverse transcribed at 42° C. using random hexamer primers. PCR amplification was carried out using a 55° C. annealing temperature. The samples were separated on a 6% nondenaturing polyacrylamide gel. The gel was dried and analyzed by PhosphorImager. Signal intensity was normalized using rat ribosomal phosphoprotein P0 (RRRPP0) as an internal standard.

Assay [1] can be described thus: Blood pressure in spontaneously hypertensive rats (tail cuff). In kind it is in vivo, rat. The settings on record: SHR rats, treatment for one week in drinking water. As to the method: as §2
For another assay, the system named is retinal KDR mRNA. The assay is described as follows: Retinal KDR mRNA in spontaneously hypertensive rats (multiplex RT-PCR). In kind it is in vivo, rat. As to conditions: SHR rats, captopril 100 mg/kg/day or candesartan cilexetil 10 mg/kg/day in drinking water for one week. As to the method:
To determine the effect of hypertension on KDR levels in vivo, KDR mRNA was quantified in hypertensive rats (SHR) as well as weight-matched controls (WKY). […] Captopril is an angiotensin converting enzyme (ACE) inhibitor. Candesartan Cilexetil is an angiotensin II antagonist.
as §2, §3

Assay [2] concerns KDR mRNA. Put plainly: Angiotensin II-induced KDR mRNA expression. The format is cell-based. An excerpt:
(§4) Cyclic stretch induces KDR mRNA at least 2.2 fold. […] In contrast, angiotensin II which also induces KDR mRNA is blocked from doing so by candesartan cilexetil, an AT1 receptor antagonist. Thus, unlike Angiotensin II induced KDR expression, stretch induced KDR expression is not mediated through the AT1 receptor pathway.

The test system of assay [3] is bovine retinal endothelial cells (BRECs). Put plainly: 3H-thymidine incorporation (mitogenesis) under cyclic stretch. The format is cell-based. As to the method:
Cells can respond to VEGF by proliferation. A measure of proliferation is the rate of cell progression through mitosis. Cells transiting S phase will incorporate ^3H-thymidine.
To determine if the effects of cyclic stretching on mitogenesis are mediated by VEGF signaling, cells were stretched while treated with a VEGF neutralizing antibody.
(§5) Cells were seeded on 6-well flexible-bottom plates coated with bovine fibronectin and subjected to uniform radial and circumferential strain using a computercontrolled, vacuum stretch apparatus (Flexcer Cell Strain Unit; Flexcel Corp.) with cardiac profile at a frequency of 60 cpm.
Confluent cells were placed in 1% calf serum for 24 hours and then subjected to 9%/60 cpm cyclic stretch for 24 hrs. During the last 12 hrs, VEGF (25 ng/ml final). VEGF neutralizing antibody (10 μg/ml was added 30 minutes prior to stretch onset. ^3H-thymidine (0.5 μCi/ml)was added during the last 6 hours.
Background: Uptake of a labelled nucleoside into DNA is a usual measure of proliferation.

The subject of assay [4] is KDR mRNA. Put plainly: Cyclic stretch-induced KDR mRNA expression. In kind it is cell-based, bovine. The method, then: as §4, §5

“Also recorded” adds a separate entry of the source. Read-outs that look alike come from different tables or passages of the source.

In the case of `O=c1c(-c2ccc(O)cc2)coc2cc(O)cc(O)c12` [genistein], in the assay with VEGF mRNA, the “inhibition of stretch-induced VEGF mRNA expression” value was determined as 87±12% and the “effect on basal VEGF mRNA expression” value is “without altering”. The “inhibition of stretch-induced Akt phosphorylation” value in the assay with Akt is 84+14%. Further, the “effect on stretch-induced ERK1/2 phosphorylation” value in the assay with ERK1/2 was “lack of response”.

For the compound `COC[C@H]1OC(=O)c2coc3c2[C@@]1(C)C1=C(C3=O)[C@@H]2CCC(=O)[C@@]2(C)C[C@H]1OC(C)=O` [wortmannin], in the assay on VEGF mRNA, the “inhibition of stretch-induced VEGF mRNA expression” value stood at 96±25%. Besides, the “inhibition of stretch-induced Akt phosphorylation” value with Akt is 119+18%.

In the case of `C[C@H](CS)C(=O)N1CCC[C@H]1C(=O)O` [captopril], the “effect on hypertension-induced elevation of retinal VEGF mRNA” value in the assay with retinal VEGF mRNA is on record as “blocked”. The “effect on blood pressure” value in assay [1] is listed as “normalization”. Moreover, the “effect on hypertension-induced elevation of retinal KDR mRNA” value with retinal KDR mRNA is “blocked; also recorded: returned to baseline levels”.

“angiotensin II (DRVYIHPF; Angiotensin-2; UniProt P01019 25-32, looked up) [peptide that induces KDR mRNA through the AT1 receptor]”: the “KDR mRNA induction” value in the assay with KDR mRNA [2] is recorded as “induces”.

Consider `COc1cccc(-c2cc(=O)c3ccccc3o2)c1N` [PD98059], for which, in the assay with VEGF mRNA, the “effect on stretch-induced VEGF mRNA expression” value is reported as “little effect; also recorded: not suppressed” and the “effect on basal VEGF mRNA expression” value is “little effect”. Besides, the “effect on stretch-induced Akt phosphorylation” value in the assay on Akt was “little effect”.

For VEGF, in assay [3] (BREC, cyclic stretch plus VEGF), the “increase of VEGF-stimulated thymidine uptake by cyclic stretch” value is 2.6+/−0.2 fold. In assay [3] (cyclic stretching in combination with exogenous VEGF (25 ng/ml)), the “increase in 3H-thymidine uptake” value was 257±21%. For the same compound, in assay [3] (exogenous VEGF alone, no stretch), the “effect on 3H-thymidine uptake” value is “no significant effect”.

For the compound `CN(C)CCCn1cc(C2=C(c3c[nH]c4ccccc34)C(=O)NC2=O)c2ccccc21` [GF109203X], the “effect on stretch-induced VEGF mRNA expression” value with VEGF mRNA is given as “did not alter”. Moreover, in the assay on ERK1/2, the “effect on stretch-induced ERK1/2 phosphorylation” value was “inhibition”.

For `CCOc1nc2cccc(C(=O)OC(C)OC(=O)OC3CCCCC3)c2n1Cc1ccc(-c2ccccc2-c2nn[nH]n2)cc1` (stereo not drawn) [candesartan cilexetil], the “effect on angiotensin II-induced KDR mRNA” value with KDR mRNA [2] (angiotensin II stimulation) was “blocked”. The results for the “effect on cyclic stretch-induced KDR mRNA expression” value with KDR mRNA [4] and with KDR mRNA [4] (listed as candesartan) were “not significantly affected” and “not inhibited”, respectively. The “effect on hypertension-induced elevation of retinal VEGF mRNA” value in the assay on retinal VEGF mRNA is “blocked”. Further, in assay [1], the “effect on blood pressure” value is “normalization”. Further, the results for the “effect on hypertension-induced elevation of retinal KDR mRNA” value in the assay with retinal KDR mRNA and in the assay with retinal KDR mRNA (listed as candesartan) were “blocked” and “returned to baseline levels”, respectively.

`O=c1cc(N2CCOCC2)oc2c(-c3ccccc3)cccc12` [LY294002]: in the assay with VEGF mRNA, the “inhibition of stretch-induced VEGF mRNA expression” value was determined as 85±20%. Moreover, the “inhibition of stretch-induced Akt phosphorylation” value in the assay with Akt was 119+14%.
